Assays:
Settings in all cases: incubation time: 72 h
[1] = test system: MDA-MB-453; experiment: normalised response (% of control), CellTox Green; higher = less cell death (100 = DMSO, 0 = benzethonium chloride kill control)
Method in brief: (§1)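 CellTox Green fluorescence (485/520 nm) and, after 10 min at room temperature, CellTiter-Glo luminescence were read from breast cancer cell lines incubated 72 h in 384-well plates. Cells were seeded as 20 µl suspension onto compound at 5 concentrations in 10-fold steps over a 10,000-fold range chosen per compound. Each plate was normalised to 0.1 % DMSO (100) and a positive kill control (0). Values are normalised signals, one per concentration.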

[2] = test system: CAL-120; experiment: as above
Method in brief: as §1

[3] = test system: HCC1143; experiment: as above
Method in brief: as §1

[4] = test system: MFM-223; experiment: as above
Method in brief: as §1

[5] = test system: BT-549; experiment: as above
Method in brief: as §1

[6] = test system: HCC1937; experiment: as above
Method in brief: as §1

[7] = test system: MDA-MB-231; experiment: as above
Method in brief: as §1

[8] = test system: DU-4475; experiment: as above
Method in brief: as §1

[9] = test system: HCC1599; experiment: as above
Method in brief: as §1

[10] = test system: MDA-MB-436; experiment: as above
Method in brief: as §1

[11] = test system: MCF-10A; experiment: as above
Method in brief: as §1

[12] = test system: BT-474; experiment: as above
Method in brief: as §1

[13] = test system: MDA-MB-468; experiment: as above
Method in brief: as §1

[14] = test system: CAL-85-1; experiment: as above
Method in brief: as §1

[15] = test system: CAL-51; experiment: as above
Method in brief: as §1

[16] = test system: HDQ-P1; experiment: as above
Method in brief: as §1

[17] = test system: Hs578T; experiment: as above
Method in brief: as §1

[18] = test system: MDA-MB-453; experiment: normalised response (% of control), CellTiter-Glo; higher = more viable cells (100 = DMSO, 0 = benzethonium chloride kill control)
Method: (§2)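 DSRT, 72 h incubation, CellTox Green / CellTiter-Glo readout. Signal is normalised to DMSO and benzethonium chloride controls. Value is the normalised response at the highest dose.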

[19] = test system: CAL-120; experiment: as above
Method: as §2

[20] = test system: HCC1143; experiment: as above
Method: as §2

[21] = test system: MFM-223; experiment: as above
Method: as §2

[22] = test system: BT-549; experiment: as above
Method: as §2

[23] = test system: HCC1937; experiment: as above
Method: as §2

[24] = test system: MDA-MB-231; experiment: as above
Method: as §2

[25] = test system: DU-4475; experiment: as above
Method: as §2

[26] = test system: HCC1599; experiment: as above
Method: as §2

[27] = test system: MDA-MB-436; experiment: as above
Method: as §2

[28] = test system: MCF-10A; experiment: as above
Method: as §2

[29] = test system: BT-474; experiment: as above
Method: as §2

[30] = test system: MDA-MB-468; experiment: as above
Method: as §2

[31] = test system: CAL-85-1; experiment: as above
Method: as §2

[32] = test system: SK-BR-3; experiment: as above
Method: as §2

[33] = test system: CAL-51; experiment: as above
Method: as §2

[34] = test system: CAL-148; experiment: as above
Method: as §2

[35] = test system: HDQ-P1; experiment: as above
Method: as §2

[36] = test system: Hs578T; experiment: as above
Method: as §2

[37] = test system: CAL-148; experiment: normalised response (% of control), CellTox Green; higher = less cell death (100 = DMSO, 0 = benzethonium chloride kill control)
Method in brief: as §1

Q: With Cc1c(C(=O)Nc2ccc(N3C[C@@H](C)O[C@@H](C)C3)nc2)cccc1-c1ccc(OC(F)(F)F)cc1 [Erismodegib] (10000 nM) as the molecule, how does the normalised response [1] read?
A: The normalised response was 63.9%.

Q: What about the normalised response [2] of the same molecule?
A: Its normalised response is 101%.

Q: And the normalised response [3]?
A: Its normalised response is 109%.

Q: And the normalised response [4]?
A: The normalised response was 105%.

Q: What about the normalised response [5] of the same molecule?
A: Its normalised response is 130%.

Q: And the normalised response [6]?
A: The normalised response was 122%.

Q: What about the normalised response [7] of the same molecule?
A: Its normalised response is 107%.

Q: And the normalised response [8]?
A: The normalised response was 108%.

Q: And the normalised response [9]?
A: The normalised response was 118%.

Q: What about the normalised response [10] of the same molecule?
A: The normalised response was 79%.

Q: And the normalised response [11]?
A: Its normalised response is 101%.

Q: And the normalised response [12]?
A: Its normalised response is 93%.

Q: And the normalised response [13]?
A: Its normalised response is 171%.

Q: What about the normalised response [14] of the same molecule?
A: Its normalised response is 85.3%.

Q: And the normalised response [15]?
A: Its normalised response is 99.8%.

Q: What about the normalised response [16] of the same molecule?
A: Its normalised response is 111%.

Q: What about the normalised response [17] of the same molecule?
A: Its normalised response is 80.5%.

Q: What about the normalised response [18] of the same molecule?
A: The normalised response was 75.5%.

Q: And the normalised response [19]?
A: The normalised response was 97.6%.

Q: And the normalised response [20]?
A: Its normalised response is 89.4%.

Q: What about the normalised response [21] of the same molecule?
A: The normalised response was 80.8%.

Q: What about the normalised response [22] of the same molecule?
A: Its normalised response is 81.8%.

Q: And the normalised response [23]?
A: Its normalised response is 90.2%.

Q: What about the normalised response [24] of the same molecule?
A: Its normalised response is 79%.

Q: What about the normalised response [25] of the same molecule?
A: The normalised response was 99.6%.

Q: And the normalised response [26]?
A: Its normalised response is 91.1%.

Q: And the normalised response [27]?
A: Its normalised response is 78.6%.

Q: And the normalised response [28]?
A: The normalised response was 92%.

Q: What about the normalised response [29] of the same molecule?
A: The normalised response was 73.5%.

Q: What about the normalised response [30] of the same molecule?
A: Its normalised response is 74.7%.

Q: What about the normalised response [31] of the same molecule?
A: The normalised response was 91.8%.

Q: What about the normalised response [32] of the same molecule?
A: Its normalised response is 81%.

Q: What about the normalised response [33] of the same molecule?
A: The normalised response was 102%.

Q: And the normalised response [34]?
A: The normalised response was 100%.

Q: And the normalised response [35]?
A: Its normalised response is 85.3%.

Q: What about the normalised response [36] of the same molecule?
A: The normalised response was 94.8%.

Q: For COc1cc(Nc2ncc(F)c(Nc3ccc4c(n3)N(COP(=O)(O)O)C(=O)C(C)(C)O4)n2)cc(OC)c1OC [Fostamatinib] (2500 nM), which normalised response [1] is on record?
A: Its normalised response is 89.1%.

Q: What about the normalised response [2] of the same molecule?
A: The normalised response was 67.8%.

Q: And the normalised response [3]?
A: Its normalised response is 100%.

Q: And the normalised response [4]?
A: Its normalised response is 87.5%.

Q: And the normalised response [5]?
A: Its normalised response is 64.8%.

Q: And the normalised response [6]?
A: Its normalised response is 74.1%.

Q: What about the normalised response [7] of the same molecule?
A: The normalised response was -11.9%.

Q: And the normalised response [8]?
A: Its normalised response is 90.3%.

Q: And the normalised response [9]?
A: Its normalised response is 92.7%.

Q: What about the normalised response [10] of the same molecule?
A: The normalised response was 86.6%.

Q: What about the normalised response [11] of the same molecule?
A: The normalised response was 69%.

Q: And the normalised response [12]?
A: The normalised response was 77.7%.

Q: What about the normalised response [13] of the same molecule?
A: Its normalised response is 37.4%.

Q: And the normalised response [14]?
A: The normalised response was -13.8%.

Q: And the normalised response [15]?
A: The normalised response was 31.6%.

Q: What about the normalised response [37] of the same molecule?
A: The normalised response was 67.6%.

Q: And the normalised response [16]?
A: The normalised response was 73.6%.

Q: And the normalised response [17]?
A: Its normalised response is 19.2%.

Q: And the normalised response [18]?
A: The normalised response was 64.8%.

Q: And the normalised response [19]?
A: Its normalised response is 43.7%.

Q: And the normalised response [20]?
A: The normalised response was 63.2%.

Q: And the normalised response [21]?
A: Its normalised response is 37.8%.

Q: What about the normalised response [22] of the same molecule?
A: Its normalised response is 39.7%.

Q: And the normalised response [23]?
A: The normalised response was 54%.

Q: And the normalised response [24]?
A: Its normalised response is 20.3%.

Q: And the normalised response [25]?
A: The normalised response was 65.1%.

Q: And the normalised response [26]?
A: Its normalised response is 66.8%.

Q: What about the normalised response [27] of the same molecule?
A: The normalised response was 67.5%.

Q: And the normalised response [28]?
A: The normalised response was 15.1%.

Q: And the normalised response [29]?
A: The normalised response was 27%.

Q: And the normalised response [30]?
A: Its normalised response is 64.4%.

Q: What about the normalised response [31] of the same molecule?
A: Its normalised response is 30.5%.

Q: What about the normalised response [32] of the same molecule?
A: Its normalised response is 60.3%.

Q: What about the normalised response [33] of the same molecule?
A: Its normalised response is 50.8%.

Q: And the normalised response [34]?
A: The normalised response was 106%.

Q: And the normalised response [35]?
A: The normalised response was 26.1%.

Q: What about the normalised response [36] of the same molecule?
A: Its normalised response is 15.1%.

Q: Which results are given for CC(C)NC[C@@H](C(=O)N1CCN(c2ncnc3c2[C@H](C)C[C@H]3O)CC1)c1ccc(Cl)cc1 [GDC-0068] (10000 nM)?
A: normalised response [1]: 90.9%; normalised response [2]: 104%; normalised response [3]: 110%; normalised response [4]: 74.7%; normalised response [5]: 76.8%; normalised response [6]: 97.5%; normalised response [7]: 124%; normalised response [8]: 96.6%; normalised response [9]: 95.9%; normalised response [10]: 96%; normalised response [11]: 101%; normalised response [12]: 95.7%; normalised response [13]: 46.7%; normalised response [14]: 100%; normalised response [15]: 77.1%; normalised response [37]: 29.8%; normalised response [16]: 67.2%; normalised response [17]: 119%; normalised response [18]: 29.6%; normalised response [19]: 70.3%; normalised response [20]: 55.8%; normalised response [21]: 23.3%; normalised response [22]: 55.3%; normalised response [23]: 61.5%; normalised response [24]: 89.5%; normalised response [25]: 75.2%; normalised response [26]: 82.5%; normalised response [27]: 77.5%; normalised response [28]: 58.9%; normalised response [29]: 86.6%; normalised response [30]: 43.4%; normalised response [31]: 66.1%; normalised response [32]: 44.3%; normalised response [33]: 36.8%; normalised response [34]: 3.54%; normalised response [35]: 58.3%; normalised response [36]: 65.1%

Q: What does the source list for CCCc1cc(C)[nH]c(=O)c1CNC(=O)c1cc(-c2ccnc(N3CCN(C)CC3)c2)cc2c1cnn2C(C)C [GSK343] (10000 nM)?
A: normalised response [1]: -8.4%; normalised response [2]: 78.5%; normalised response [3]: 68.4%; normalised response [4]: 77.3%; normalised response [5]: 97.6%; normalised response [6]: 101%; normalised response [7]: -68.4%; normalised response [8]: 92.7%; normalised response [9]: 73.6%; normalised response [10]: 95.2%; normalised response [11]: 90.1%; normalised response [12]: 4.03%; normalised response [13]: 114%; normalised response [14]: 56.8%; normalised response [15]: 106%; normalised response [37]: 85.5%; normalised response [16]: 80%; normalised response [17]: 79.2%; normalised response [18]: 13.7%; normalised response [19]: 79.4%; normalised response [20]: 68.9%; normalised response [21]: 41.8%; normalised response [22]: 77.1%; normalised response [23]: 100%; normalised response [24]: 7.92%; normalised response [25]: 77.8%; normalised response [26]: 22.8%; normalised response [27]: 53.9%; normalised response [28]: 97.5%; normalised response [29]: 11.3%; normalised response [30]: 11.1%; normalised response [31]: 30.2%; normalised response [32]: 11.3%; normalised response [33]: 120%; normalised response [34]: 62.8%; normalised response [35]: 66.7%; normalised response [36]: 74.4%
